Laboratory results as given in patent US5916785A, “Process of oxidizing alcohols or carboxylic acids with alcohol/aldehyde dehydrogenase from gluconobacter” (Roche Vitamins Inc., priority 1992, dated 1999).

How the values were obtained:
AADH [1] = assay: Measurement of the Km (Michaelis constant) values, DCIP/PMS enzyme assay; assay type: biochemical, Gluconobacter oxydans DSM No. 4025; settings: mixture of DCIP and PMS as electron acceptors; 25° C., pH 8.0; read-out: apparent Michaelis constant (Km)
AADH [2] = assay: Effect of metal ions on the enzyme activity; assay type: biochemical, Gluconobacter oxydans DSM No. 4025; settings: standard DCIP/PMS assay
Source text: Using the assay procedure described under section 1), the effect of various metal ions on the enzyme activity was examined. […] The others affected the enzyme activity strongly or moderately.

AADH [3] = assay: Effect of inhibitors on the enzyme activity; assay type: biochemical, Gluconobacter oxydans DSM No. 4025; settings: standard DCIP/PMS assay
AADH [4] = settings: substrate used instead of L-sorbose
Description: The enzyme assay was performed at 25° C. by measuring the decrease of absorbance at 600 nm of DCIP with a spectrophotometer (UVIKON 810, Kontron K.K.). One unit of the enzyme activity was defined as the amount of the enzyme which catalyzed the reduction of 1 μmole of DCIP per minute. The extinction coefficient of DCIP at pH 8.0 was taken as 15 mMol^-1. The standard reaction mixture (1.0 ml) contained 0.1 mMol DCIP, 1 mMol PMS, 125 mMol L-sorbose, 50 mMol Tris-malate-NaOH buffer (pH 8.0), and 3-8 μl of the enzyme solution. A reference cuvette contained all the above components except the substrate.
The substrate specificity of AADH was determined using the same enzyme assay method as described under section 1) above, except that various further substrates were used instead of L-sorbose.

Structure (SMILES)	effect of metal ions on the AADH enzyme activity (AADH [2])	further results
CCCO [1-propanol]		Km (AADH [1]): 2000 µM
[Ca+2] [Ca^2+]	did not affect	
[Cu+2] [Cu^2+]	strong inhibitors	
O=C(O)CN(CCN(CC(=O)O)CC(=O)O)CC(=O)O [EDTA, Ethylenediamine tetraacetic acid]		effect of inhibitors on the AADH enzyme activity (AADH [3]): strongly inhibited
O=C(O)CN(CCOCCOCCN(CC(=O)O)CC(=O)O)CC(=O)O [EGTA, ethylene glycol bis(beta-aminoethylether)-N,N,N',N'-tetraacetic acid]		effect of inhibitors on the AADH enzyme activity (AADH [3]): strongly inhibited
[Fe+3] [Fe^3+]	strong inhibitors	
[Mg+2] [Mg^2+]	did not affect	
[Mn+2] [Mn^2+]	strong inhibitors	
CCO [ethanol]		oxidation as substrate by AADH (AADH [4]): good substrate
CO [methanol]		oxidation as substrate by AADH (AADH [4]): hardly oxidizes
